“Also recorded” adds a separate entry of the source.
What was measured:
[1] = tested on: MOG35-55-stimulated splenocytes; assay: Cytokine and chemokine production by splenocytes from EAE mice (Luminex); type: in vivo, mouse; parameters: key to Peripheral Inflammatory Cytokines: IFNγ / Peripheral Inflammatory Cytokines: IL-lβ / Peripheral Inflammatory Cytokines: IL-2 / Peripheral Inflammatory Cytokines: IL-6 / Peripheral Inflammatory Cytokines: IL-17 / Peripheral Inflammatory Cytokines: TNFα / Peripheral Th2 & Anti-inflammatory Cytokines: IL-4 / Peripheral Th2 & Anti-inflammatory Cytokines: IL-5 / Peripheral Th2 & Anti-inflammatory Cytokines: IL-10 / Peripheral Th2 & Anti-inflammatory Cytokines: IL-13 / Peripheral Chemokines: CXCL1 / Peripheral Chemokines: CXCL10: ‘+’ indicate marker was significantly (p ≤ 0.05) increased in treatment group relative to vehicle; ‘−’ indicates marker was significantly (p ≤ 0.05) decreased in treatment group relative to vehicle; ○: ‘o’ indicate marker did not change relative to vehicle; conditions: for Peripheral Chemokines: CXCL1 / Peripheral Chemokines: CXCL10 / Peripheral Inflammatory Cytokines: IFNγ / Peripheral Inflammatory Cytokines: IL-2 / Peripheral Inflammatory Cytokines: IL-6 / Peripheral Inflammatory Cytokines: IL-17 / Peripheral Inflammatory Cytokines: IL-lβ / Peripheral Inflammatory Cytokines: TNFα / Peripheral Th2 & Anti-inflammatory Cytokines: IL-4 / Peripheral Th2 & Anti-inflammatory Cytokines: IL-5 / Peripheral Th2 & Anti-inflammatory Cytokines: IL-10 / Peripheral Th2 & Anti-inflammatory Cytokines: IL-13: vs vehicle
Procedure: Splenocyte Isolation & Cytokine Analysis: On day 20-21 after induction of EAE, spleens were harvested prior to transcardial perfusion. Spleens were dissected from anesthetized mice and mechanically dissociated into a single cell suspension in cold RPMI 1640 supplemented with pyruvate, L-glutamine, and 10% fetal bovine serum (henceforth referred to as RPMI). Red blood cells were lysed by incubation with ACK buffer (VWR), washed, counted, and resuspended in RPMI for cytokine analysis. Splenocytes were then stimulated with 25 μg/ml MOG35-55 and supernatants were collected 48 hours later (Khalaj et al., 2013; Moore et al., 2013). Levels of the anti-inflammatory cytokines: IL-10, IL-13, IL-4 and IL-5; pro-inflammatory cytokines IFNγ, IL-17, IL-1β TNFα, IL-6 and IL-2; and chemokines: CXCL1, CXCL10 were determined by Cytokine Mouse Magnetic Panel for Luminex (Thermo Fisher Scientific; Waltham, Mass.) and run on the xMAP MAGPIX 100™ instrument (Luminex Corporation, Austin, Tx) according to manufacturer's instructions.
During MS and EAE, peripherally activated leukocytes secrete inflammatory cytokines and chemokines as they migrate into the CNS, where they contribute to demyelination and axon damage (Fletcher et al., 2010). To characterize the effects of IndCl analogues on the peripheral immune response, splenocytes were isolated from mice 21 days post-immunization and stimulated ex vivo with MOG35-55 peptide for cytokine and chemokine analysis using a magnetic bead-based 20-plex cytokine/chemokine detection assay. Cytokines related to inflammation, CD4+ T cell polarization, immune regulation, and chemokines associated with OL apoptosis and myelination that were measured in collected supernatants are presented below.

callosal axons = assay: Callosal compound action potential (CAP) recordings in brain slices of EAE mice; type: in vivo, mouse; conditions: vs vehicle; for N1 CAP amplitude / N2 CAP amplitude: therapeutic treatment (postEAE)
Procedure: Electrophysiology: To assess functional conductivity across the CC, electrophysiological recordings of compound action potentials (CAPs) were measured as previously described (Crawford et al., 2009; Crawford et al., 2010). Coronal brain slices were prepared from adult (3 to 4 month old) C57BL/6 female mice. Briefly, mice were deeply anesthetized under isoflurane and decapitated. The brain was removed and submerged in partially frozen “slushy” solution of slicing buffer containing (in mM): 87 NaCl, 75 sucrose 2.5 KCl, 0.5 CaCl2), 7 MgCl2, 1.25 NaH2PO4, 25 NaHCO3, 10 glucose, 1.3 ascorbic acid, 0.1 kynurenic acid, 2.0 pyruvate, and 3.5 MOPS, bubbled with 5% CO2+95% O2 (Lauderdale et al., 2015). Coronal slices (350 μm) were prepared using a Leica VT 1000S Vibratome (Bannockburn, Ill.) and subsequently incubated for 45 minutes at 35° C. in slicing buffer. Following incubation, slices were allowed to cool to room temperature for 15 minutes then transferred to ACSF […] containing (in mM): 125 NaCl, 2.5 KCl, 2.5 CaCl2), 1.3 MgCl2, 1.25 NaH2PO4, 26.0 NaHCO3, and 15 glucose, oxygenated with 5% CO2+95% O2. Slices were equilibrated in the standard ACSF for a minimum of 15-20 minutes prior to electrophysiological recordings. During electrophysiological recordings, slices were continuously perfused with oxygenated ACSF maintained at a flow rate of 1 mL/min. For recording CAPs, an Axon Digidata 1550 was used with a Multiclamp 700B Amplifier and PClamp 10.4 Software (Molecular Devices, Sunnyvale, Calif.). Continuous recordings for CC conduction experiments were low-pass filtered at 10 kHz and digitized at 200 kHz. All experiments were conducted at room temperature (24-26° C.). To stimulate the CC fiber tract, a concentric bipolar stimulating electrode (FHC Neural microTargeting Worldwide, Bowdoin, Me., USA) was placed approximately 1 mm away across from a recoding electrode (glass micropipette filled with ACSF) with a resistance of 1-3 MO. To elicit CAPs, an episodic stimulation protocol was created consisting of 8 consecutive sweeps, each 12 ms long, with a 5-sec delay between sweeps and an immediate stimulus (0.01 ms duration) after the start of each sweep (Crawford et al., 2009a). Stimulus intensity was adjusted manually using an ISO-Flex stimulator (A.M.P.I). Standardized input-output plots were generated in current clamp mode for each slice by averaging at least 4 consecutive sweeps together to […] the signal-to-noise ratio. […] Electrophysiology data were analyzed using Clampfit 10.4 software (Molecular Devices, Sunnyvale, Calif.) and OriginPro 2016 64 Bit (OriginLab Corporation)
Large white matter tracts, such as the CC, are especially vulnerable to demyelination and axonal damage in MS and EAE (Ozturk et al., 2010; Mangiardi et al., 2011). Compound action potential (CAP) recordings are a valuable technique for assessing demyelination and damage in these areas through their impact on functional conductivity (Crawford et al., 2009; Crawford et al., 2010; Moore et al., 2013).

[2] = Post (therapeutic, postEAE) treatment of EAE mice
[3] = Pre (prophylactic, preEAE) E2 treatment of EAE mice
[4] = prophylactic E2 (preEAE), day 21, vs vehicle
[5] = therapeutic treatment (postEAE), day 21, vs vehicle

SMILES | Peripheral Chemokines: CXCL1 [1, 2] | Peripheral Chemokines: CXCL10 [1, 2] | Peripheral Inflammatory Cytokines: IFNγ [1, 2] | Peripheral Inflammatory Cytokines: IL-2 [1, 2] | Peripheral Inflammatory Cytokines: IL-6 [1, 2] | Peripheral Inflammatory Cytokines: IL-17 [1, 2] | Peripheral Inflammatory Cytokines: IL-lβ [1, 2] | Peripheral Inflammatory Cytokines: TNFα [1, 2] | Peripheral Th2 & Anti-inflammatory Cytokines: IL-4 [1, 2] | Peripheral Th2 & Anti-inflammatory Cytokines: IL-5 [1, 2] | Peripheral Th2 & Anti-inflammatory Cytokines: IL-10 [1, 2] | Peripheral Th2 & Anti-inflammatory Cytokines: IL-13 [1, 2] | IFNγ production by splenocytes [1, 5] | Electrophysiology: N1 amplitude (callosal axons; [2]) | N1 CAP amplitude (callosal axons) | IL-6 production by splenocytes [1, 5] | IL-13 production by splenocytes [1, 5] | other results
C[C@]12CC[C@@H]3c4ccc(O)cc4CC[C@H]3[C@@H]1CC[C@@H]2O [E2, 170 estradiol] | + | − | − | ○ | − | − | ○ | ○ | ○ | ○ | ○ | ○ |  |  |  |  |  | Peripheral Chemokines: CXCL1 [1, 3]: +; Peripheral Chemokines: CXCL10 [1, 3]: −; Peripheral Inflammatory Cytokines: IFNγ [1, 3]: −; Peripheral Inflammatory Cytokines: IL-2 [1, 3]: −; Peripheral Inflammatory Cytokines: IL-6 [1, 3]: −; Peripheral Inflammatory Cytokines: IL-17 [1, 3]: −; Peripheral Inflammatory Cytokines: IL-lβ [1, 3]: ○; Peripheral Inflammatory Cytokines: TNFα [1, 3]: ○; Peripheral Th2 & Anti-inflammatory Cytokines: IL-4 [1, 3]: ○; Peripheral Th2 & Anti-inflammatory Cytokines: IL-5 [1, 3]: ○; Peripheral Th2 & Anti-inflammatory Cytokines: IL-10 [1, 3]: ○; Peripheral Th2 & Anti-inflammatory Cytokines: IL-13 [1, 3]: ○; IL-1β production by splenocytes [1, 4]: no effect; TNFα production by splenocytes [1, 4]: no effect
Oc1ccc(-n2nc3ccc(O)cc3c2Cl)cc1 [IndCl, chloroindazole] | + | − | − | ○ | ○ | ○ | + | ○ | ○ | ○ | ○ | ○ | significantly decreased | + | significant improvement; also recorded: improved |  |  | CXCL1 production by splenocytes [1, 5]: increased; CXCL10 production by splenocytes [1, 5]: decreased; IL-1β production by splenocytes [1, 5]: increased; Th2 (IL-4, IL-5, IL-13) and IL-10 cytokine production by splenocytes [1, 5]: no effect
Oc1ccc(-n2nc3ccc(O)cc3c2Cl)c(Cl)c1 [IndCl-o-Cl, 3-chloro-2-(2-chloro-4-hydroxyphenyl)-2H-indazol-5-ol] | + | − | − | ○ | − | − | ○ | ○ | ○ | ○ | ○ | − | significantly decreased | + | improved | significantly decreased | attenuated | IFNγ production by splenocytes ([1]; therapeutic treatment (postEAE), day 21, vs vehicle, listed as o-Cl): decreased; Electrophysiology: N2 amplitude (callosal axons; [2]): +; N2 CAP amplitude (callosal axons): increased; N2 CAP amplitude (callosal axons; listed as Ind-o-Cl): small but significant increase
Cc1cc(O)ccc1-n1nc2ccc(O)cc2c1Cl [IndCl-o-Me, 3-chloro-2-(4-hydroxy-2-methylphenyl)-2H-indazol-5-ol] | + | − | − | ○ | − | − | ○ | ○ | ○ | ○ | ○ | − | significantly decreasing | + | improved | significantly decreasing | attenuated | IL-17 production by splenocytes [1, 5]: significantly decreasing; also recorded: reducing; IFNγ production by splenocytes ([1]; therapeutic treatment (postEAE), day 21, vs vehicle, listed as o-Me): decreased

— US11673866B2, “Estrogen receptor beta ligands for the prevention and treatment of multiple sclerosis (MS) and other demyelinating, inflammatory and neurodegenerative diseases” (The Board of Trustees of the University of Illinois, priority 2018, dated 2023)
